Test results published in patent US9128097B2, “Method and kit for assessing viable cells” (ChemoMetec A/S, priority 2008, dated 2015).

Columns and labels:
HEK293 cells = test: NAM/PI staining of outgrown HEK293 cells, fluorescence microscopy; assay type: cell-based, Human; conditions: 10 μg/mL NAM
Procedure: Materials and Methods. HEK293 cells were grown at 37° C. in a humidified air atmosphere with 5% CO2 in DMEM (Invitrogen, #31966) supplemented with 10% heat-inactivated fetal bovine serum (Invitrogen, #10108-165). Cells were harvested with 0.5 mL of trypsin (Invitrogen, #25300) and neutralized with 5 mL medium (DMEM+10% FCS) two days after they had reached full confluency. These outgrown HEK293 cells (cell density 1.6×10^6, 78% viable determined using the NC-100 NucleoCounter system following the manufacturer's (ChemoMetec) protocol) were stained with 10 μg/mL NAM (Sigma, #01665). Another cell sample were treated with 0.25% Triton X-100 (Sigma, #T9284) and hereafter added 10 μg/mL NAM. After staining, each cell sample was loaded into a NucleoCassette, containing the DNA stain propidium iodide (PI). The cells were investigated using an Olympus IX50 fluorescence microscope, and images were captured using a Lumenera CCD camera and in-house developed software. PI and NAM fluorescence were detected using, respectively, U-MWG2 (green long pass: 510-550 nm) and U-MNUA2 (UV band pass, 330-385 nm) filter cubes (Olympus).

[1] = tested on: primary murine splenocytes; test: NAM/PI staining of primary murine splenocytes; assay type: cell-based, C57BL/6 mouse; conditions: splenocytes 90% viable; 10 μL NAM (100 μg pr. mL DMSO) to 90 μL cells
Procedure: Materials and Methods. The spleen from a C57BL/6 mouse was placed in ice-cold PBS and gently ground using the end of a sterile syringe. The suspension was centrifuged at 300 g for 10 minutes; the pellet was resuspended in 1 mL 0.83% NH4Cl to lyse erythrocytes and incubated for 3 minutes on ice. The cells were then added 14 mL PBS and centrifuged at 300 g for 10 minutes. The splenocytes were resuspended in RPMI (Invitrogen, #61870) supplemented with 10% heat-inactivated fetal bovine serum (Invitrogen, #10108-165), 100 U/mL penicillin and 100 μg/mL streptomycin (Invitrogen, #15140-122). The cell clumps were allowed to sediment and were removed by pipetting, and the resulting single cell suspension was used. 90 μL splenocytes (cell density 1.7×10^6, 90% viable determined using the NC-100 NucleoCounter system following the manufacturer's (ChemoMetec A/S) protocol) were added 10 μL NAM (N-(9-acridinyl)maleimide, Sigma, #01665, CAS no. 49759-20-8) dissolved in DMSO (100 μg NAM pr. mL DMSO) and mixed by pipetting. […] The cells were investigated using an Olympus IX50 fluorescence microscope, and images were captured using a Lumenera CCD camera and in-house developed software. PI and NAM fluorescence were detected using, respectively, U-MWG2 (green long pass: 510-550 nm) and U-MNUA2 (UV band pass, 330-385 nm) filter cubes (Olympus).

[2] = tested on: bone marrow derived dendritic cells (BM-DCs); test: Staining of bone marrow derived dendritic cells with labelling agent and PI; assay type: cell-based, murine; conditions: dendritic cells 97% viable; 10 μL NAM (100 μg pr. mL DMSO) to 90 μL cells
Text: Materials and Methods. Dendritic cells were developed from murine bone marrow derived cells as described by “Lutz, M. B., N. Kukutsch, A. L. Ogilvie, S. Rossner, F. Koch, N. Romani, and G. Schuler. 1999. An advanced culture method for generating large quantities of highly pure dendritic cells from mouse bone marrow. J Immunol Methods 223:77-92”. Bone marrow cells were harvested aseptically in the laminar flow hood as described in example 11. Washed and resuspended bone marrow cells were resuspended in RPMI 1640 (Invitrogen, #61870) supplemented with 10% heat-inactivated fetal bovine serum (Invitrogen, #10108-165), 100 U/mL penicillin and 100 μg/mL streptomycin (Invitrogen, #15140-122). […] 90 μL dendritic cells (cell density 1.2×10^6, 97% viable determined using the NC-100 NucleoCounter system following the manufacturer's (ChemoMetec A/S) protocol) were added 10 μL NAM (N-(9-acridinyl)maleimide, Sigma, #01665, CAS no. 49759-20-8) dissolved in DMSO (100 μg NAM pr. mL DMSO) and mixed by pipetting. […] The cells were investigated using an Olympus IX50 fluorescence microscope, and images were captured using a Lumenera CCD camera and in-house developed software. PI and NAM fluorescence were detected using, respectively, U-MWG2 (green long pass: 510-550 nm) and U-MNUA2 (UV band pass, 330-385 nm) filter cubes (Olympus). […]

## O=C1C=CC(=O)N1c1c2ccccc2nc2ccccc12 [NAM, N-(9-acridinyl)maleimide]
HEK293 cells; HEK293 cells treated with 0.25% Triton X-100
  staining of Triton X-100 treated cells: NAM negative
HEK293 cells; outgrown HEK293 cells, 78% viable
  staining of cells versus PI: NAM and PI were found to complementary stain the outgrown HEK293 cells
[1]
  staining of cells (UV filter) versus PI positive cells: nearly all the primary spleen cells were stained by NAM
[2]
  staining of cells (UV filter) versus PI positive cells: nearly all the dendritic cells were stained by NAM
